Structures can show the parent of a compound that is named as a salt.
What was measured:
PP2CA = molecular target: T1, PP2CA (Arabidopsis thaliana, UniProt P49598); assay: ProFluor Ser/Thr PPase fluorescence assay; assay type: biochemical
T1 construct: GST fusion, E. coli Rosetta, glutathione-Sepharose
T1 sequence (P49598 1-399): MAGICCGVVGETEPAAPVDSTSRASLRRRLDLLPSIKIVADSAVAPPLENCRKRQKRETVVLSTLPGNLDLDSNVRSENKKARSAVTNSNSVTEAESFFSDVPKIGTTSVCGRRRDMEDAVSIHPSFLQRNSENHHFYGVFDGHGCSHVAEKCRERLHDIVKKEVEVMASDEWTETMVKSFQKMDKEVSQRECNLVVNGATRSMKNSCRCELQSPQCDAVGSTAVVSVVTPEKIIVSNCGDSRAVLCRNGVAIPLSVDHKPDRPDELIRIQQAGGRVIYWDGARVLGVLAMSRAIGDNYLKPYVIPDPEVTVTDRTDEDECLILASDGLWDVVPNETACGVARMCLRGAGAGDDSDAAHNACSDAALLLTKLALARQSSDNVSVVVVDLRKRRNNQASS

ERD10 = molecular target: T2, ERD10 (Arabidopsis thaliana, UniProt P42759); assay: phospholipid blot (lipid overlay); assay type: binding; settings: TBST pH 7.5, 4 °C
T2 construct: GST fusion, E. coli Rosetta, glutathione-Sepharose
T2 sequence (P42759 1-260): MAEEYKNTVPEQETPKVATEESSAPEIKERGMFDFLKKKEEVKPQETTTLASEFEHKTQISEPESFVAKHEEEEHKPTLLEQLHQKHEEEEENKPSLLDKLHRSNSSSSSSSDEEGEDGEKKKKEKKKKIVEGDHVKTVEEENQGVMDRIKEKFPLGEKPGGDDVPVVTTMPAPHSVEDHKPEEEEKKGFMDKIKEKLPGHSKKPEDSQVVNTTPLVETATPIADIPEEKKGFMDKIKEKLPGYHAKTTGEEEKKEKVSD

ABI1 = molecular target: T3, ABI1 (Arabidopsis thaliana, UniProt P49597); assay: ProFluor Ser/Thr PPase fluorescence assay; assay type: biochemical
T3 construct: GST fusion, E. coli Rosetta, glutathione-Sepharose
T3 sequence (P49597 1-434): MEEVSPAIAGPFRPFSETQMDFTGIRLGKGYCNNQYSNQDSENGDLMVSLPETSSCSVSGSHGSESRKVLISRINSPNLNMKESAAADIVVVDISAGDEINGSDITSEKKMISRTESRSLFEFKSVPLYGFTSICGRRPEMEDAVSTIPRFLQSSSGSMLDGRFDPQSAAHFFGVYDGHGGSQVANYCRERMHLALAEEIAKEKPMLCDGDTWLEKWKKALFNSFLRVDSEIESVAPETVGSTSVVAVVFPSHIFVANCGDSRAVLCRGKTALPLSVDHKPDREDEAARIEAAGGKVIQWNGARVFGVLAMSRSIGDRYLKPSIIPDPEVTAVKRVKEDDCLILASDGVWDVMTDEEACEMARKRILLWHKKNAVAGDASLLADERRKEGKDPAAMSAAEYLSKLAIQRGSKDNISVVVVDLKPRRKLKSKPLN

- inhibition at 50 µM (PP2CA): 50 to 60%
- phospholipid blot (lipid overlay) (ERD10): the two dehydrins bound both PA and PS
- inhibition at 50 µM (ABI1): 50 to 60%
SMILES: CCCCCCCC/C=C\CCCCCCCC(=O)O[C@H](COC(=O)CCCCCCCCCCCCCCC)COP(=O)(O)O [PA 16:0/18:1, 1-palmitoyl-2-oleoyl-sn-glycero-3-phosphate, sodium salt]
